# Experimental data from US10526316B2, “Quinoxaline and pyridopyrazine derivatives as PI3Kβ inhibitors” (Janssen Pharmaceutica NV, priority 2015, dated 2020).
# Like-named read-outs stand apart in the source and are kept apart here.
# Key:
# [1] = tested on: Akt phosphorylated at Thr308 in PC-3 cells; assay: Cellular assay: phosphorylation of Akt at Thr308 in PC-3 cells (MSD ELISA); assay type: cell-based; details: PC-3 cells, 60 min compound incubation, MSD ELISA, read-out: IC50 pAkt_Thr308
# Outline: (§1)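 PC-3 cells were exposed to compound or 0.3% DMSO for 60 min at 37° C, 5% CO2, then lysed in ice-cold buffer. Phospho-Akt was captured on site-specific antibody-coated plates and detected with Sulfo-tag anti-total Akt by electrochemiluminescence. IC50 values came from five-concentration response curves.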
# PI3Kδ = biological target: T1, PI3Kδ (Homo sapiens, UniProt O00329); assay: Enzyme binding assay (KINOMEscan, DiscoveRx); details: PIK3Cδ_h
# T1 construct: purchased DiscoveRx Corporation, San Diego (contract service, KINOMEscan)
# T1 sequence (O00329 1-1044): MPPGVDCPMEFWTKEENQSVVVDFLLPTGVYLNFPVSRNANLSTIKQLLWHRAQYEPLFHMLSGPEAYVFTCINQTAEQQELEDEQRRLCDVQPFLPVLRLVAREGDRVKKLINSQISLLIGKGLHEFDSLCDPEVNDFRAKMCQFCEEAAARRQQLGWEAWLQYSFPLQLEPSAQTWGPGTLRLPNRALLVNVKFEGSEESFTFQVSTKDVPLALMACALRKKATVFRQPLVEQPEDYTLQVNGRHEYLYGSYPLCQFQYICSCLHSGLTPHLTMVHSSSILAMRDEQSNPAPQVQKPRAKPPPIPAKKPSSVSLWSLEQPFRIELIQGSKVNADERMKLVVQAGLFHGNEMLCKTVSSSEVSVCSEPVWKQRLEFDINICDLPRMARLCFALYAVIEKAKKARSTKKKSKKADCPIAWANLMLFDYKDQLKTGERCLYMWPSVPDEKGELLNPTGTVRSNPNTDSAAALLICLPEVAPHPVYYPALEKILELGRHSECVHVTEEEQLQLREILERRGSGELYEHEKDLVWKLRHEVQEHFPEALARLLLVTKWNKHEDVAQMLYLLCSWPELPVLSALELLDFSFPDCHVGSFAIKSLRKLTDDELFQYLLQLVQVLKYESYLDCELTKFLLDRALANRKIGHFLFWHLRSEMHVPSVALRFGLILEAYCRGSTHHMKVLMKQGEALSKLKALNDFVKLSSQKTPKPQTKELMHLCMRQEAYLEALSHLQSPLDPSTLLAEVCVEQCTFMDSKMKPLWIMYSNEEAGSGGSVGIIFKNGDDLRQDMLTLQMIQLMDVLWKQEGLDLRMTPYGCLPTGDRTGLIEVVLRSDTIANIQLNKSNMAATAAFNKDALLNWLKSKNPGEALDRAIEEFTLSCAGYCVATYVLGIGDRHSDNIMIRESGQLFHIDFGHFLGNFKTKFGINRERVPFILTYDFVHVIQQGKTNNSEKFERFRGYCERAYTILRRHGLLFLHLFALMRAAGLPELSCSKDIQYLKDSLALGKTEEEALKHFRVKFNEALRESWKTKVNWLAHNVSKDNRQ
# Outline: (§2)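 Kinase binding measured via KINOMEscan, reported as affinity.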
# PI3Kβ = biological target: T2, PI3Kβ (Homo sapiens, UniProt P42338); assay: Enzyme binding assay (KINOMEscan, DiscoveRx); details: PIK3Cβ_h, read-out: Kd PIK3Cβ_h
# T2 construct: purchased DiscoveRx Corporation, San Diego (contract service, KINOMEscan)
# Outline: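 Reported Kd (nM) reflects inhibitor binding to the kinase, as measured by KINOMEscan technology.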
# kinase enzymes [2] = biological target: T3, kinase enzymes (Homo sapiens, UniProt P42336); assay: Enzyme binding assay (KINOMEscan, DiscoveRx), further kinases of Table A; details: PIK3Cα_h
# T3 construct: purchased DiscoveRx Corporation, San Diego (contract service, KINOMEscan)
# Outline: as §2
# kinase enzymes [3] = biological target: T4, kinase enzymes (Homo sapiens, UniProt P48736); assay: as above; details: PIK3Cγ_h
# T4 construct: purchased DiscoveRx Corporation, San Diego (contract service, KINOMEscan)
# Outline: as §2
# kinase enzymes [4] = biological target: T5, kinase enzymes (Homo sapiens, UniProt P42345); assay: as above; details: MTOR_h
# T5 construct: purchased DiscoveRx Corporation, San Diego (contract service, KINOMEscan)
# Outline: as §2
# [5] = tested on: Akt phosphorylated at Ser473 in PC-3 cells; assay: Cellular assay: phosphorylation of Akt at Ser473 in PC-3 cells (MSD ELISA); assay type: cell-based; details: PC-3 cells, 60 min compound incubation, MSD ELISA, read-out: IC50 pAkt_S473
# Outline: as §1
# T4 sequence (P48736 whole entry): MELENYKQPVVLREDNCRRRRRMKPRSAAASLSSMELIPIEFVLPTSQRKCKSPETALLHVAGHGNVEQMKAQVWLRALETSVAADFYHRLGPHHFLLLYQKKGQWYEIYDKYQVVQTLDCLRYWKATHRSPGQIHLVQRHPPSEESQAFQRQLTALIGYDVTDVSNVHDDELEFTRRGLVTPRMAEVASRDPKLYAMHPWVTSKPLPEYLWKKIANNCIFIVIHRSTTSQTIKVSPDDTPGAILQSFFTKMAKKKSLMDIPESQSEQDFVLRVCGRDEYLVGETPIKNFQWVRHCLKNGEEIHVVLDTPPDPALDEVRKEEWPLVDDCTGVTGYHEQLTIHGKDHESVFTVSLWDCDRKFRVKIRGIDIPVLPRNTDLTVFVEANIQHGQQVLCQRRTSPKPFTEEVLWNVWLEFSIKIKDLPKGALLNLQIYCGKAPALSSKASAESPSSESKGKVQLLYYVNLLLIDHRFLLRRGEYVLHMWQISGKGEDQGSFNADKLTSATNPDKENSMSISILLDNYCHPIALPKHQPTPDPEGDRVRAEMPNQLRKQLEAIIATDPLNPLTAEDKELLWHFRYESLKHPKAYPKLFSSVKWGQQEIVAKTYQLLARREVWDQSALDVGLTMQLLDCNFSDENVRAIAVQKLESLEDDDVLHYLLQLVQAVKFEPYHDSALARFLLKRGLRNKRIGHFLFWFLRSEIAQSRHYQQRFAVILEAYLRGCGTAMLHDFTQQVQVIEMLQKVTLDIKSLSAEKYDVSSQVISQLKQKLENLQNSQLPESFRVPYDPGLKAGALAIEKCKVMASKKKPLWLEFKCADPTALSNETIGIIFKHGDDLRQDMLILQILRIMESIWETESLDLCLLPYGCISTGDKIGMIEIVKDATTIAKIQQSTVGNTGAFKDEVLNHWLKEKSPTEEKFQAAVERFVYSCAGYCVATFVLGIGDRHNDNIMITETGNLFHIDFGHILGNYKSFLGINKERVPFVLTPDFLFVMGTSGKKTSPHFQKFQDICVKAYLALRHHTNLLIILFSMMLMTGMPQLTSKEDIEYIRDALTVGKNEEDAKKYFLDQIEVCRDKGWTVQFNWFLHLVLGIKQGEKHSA
# T2 sequence (P42338 whole entry): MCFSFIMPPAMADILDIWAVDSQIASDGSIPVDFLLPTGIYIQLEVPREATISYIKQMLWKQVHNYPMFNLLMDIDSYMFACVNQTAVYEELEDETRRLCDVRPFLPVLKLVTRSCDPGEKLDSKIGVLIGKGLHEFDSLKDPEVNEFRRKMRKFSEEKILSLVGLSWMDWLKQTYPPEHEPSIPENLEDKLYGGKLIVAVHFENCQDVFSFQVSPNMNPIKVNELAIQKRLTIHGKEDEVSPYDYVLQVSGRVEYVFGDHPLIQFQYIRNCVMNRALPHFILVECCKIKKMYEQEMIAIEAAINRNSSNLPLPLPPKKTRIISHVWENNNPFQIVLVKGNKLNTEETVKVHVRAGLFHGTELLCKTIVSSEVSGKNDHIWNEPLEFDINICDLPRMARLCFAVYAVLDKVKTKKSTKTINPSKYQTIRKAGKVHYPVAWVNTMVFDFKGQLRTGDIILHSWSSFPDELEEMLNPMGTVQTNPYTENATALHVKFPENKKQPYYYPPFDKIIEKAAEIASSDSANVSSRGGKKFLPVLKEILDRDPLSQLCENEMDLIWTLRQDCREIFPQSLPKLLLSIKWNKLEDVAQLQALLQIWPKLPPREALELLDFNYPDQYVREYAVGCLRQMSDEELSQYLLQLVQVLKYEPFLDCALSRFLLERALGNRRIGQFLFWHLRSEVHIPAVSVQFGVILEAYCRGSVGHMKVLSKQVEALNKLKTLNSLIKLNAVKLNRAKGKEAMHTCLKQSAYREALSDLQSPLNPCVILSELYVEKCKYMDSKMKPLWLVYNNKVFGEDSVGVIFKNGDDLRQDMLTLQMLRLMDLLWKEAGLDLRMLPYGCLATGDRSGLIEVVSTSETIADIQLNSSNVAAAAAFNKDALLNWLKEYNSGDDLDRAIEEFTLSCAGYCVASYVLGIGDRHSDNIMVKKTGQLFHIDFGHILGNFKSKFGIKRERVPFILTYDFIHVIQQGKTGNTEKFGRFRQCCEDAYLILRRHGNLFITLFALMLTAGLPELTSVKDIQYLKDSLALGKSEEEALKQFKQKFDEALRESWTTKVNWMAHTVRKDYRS
# T3 sequence (P42336 whole entry): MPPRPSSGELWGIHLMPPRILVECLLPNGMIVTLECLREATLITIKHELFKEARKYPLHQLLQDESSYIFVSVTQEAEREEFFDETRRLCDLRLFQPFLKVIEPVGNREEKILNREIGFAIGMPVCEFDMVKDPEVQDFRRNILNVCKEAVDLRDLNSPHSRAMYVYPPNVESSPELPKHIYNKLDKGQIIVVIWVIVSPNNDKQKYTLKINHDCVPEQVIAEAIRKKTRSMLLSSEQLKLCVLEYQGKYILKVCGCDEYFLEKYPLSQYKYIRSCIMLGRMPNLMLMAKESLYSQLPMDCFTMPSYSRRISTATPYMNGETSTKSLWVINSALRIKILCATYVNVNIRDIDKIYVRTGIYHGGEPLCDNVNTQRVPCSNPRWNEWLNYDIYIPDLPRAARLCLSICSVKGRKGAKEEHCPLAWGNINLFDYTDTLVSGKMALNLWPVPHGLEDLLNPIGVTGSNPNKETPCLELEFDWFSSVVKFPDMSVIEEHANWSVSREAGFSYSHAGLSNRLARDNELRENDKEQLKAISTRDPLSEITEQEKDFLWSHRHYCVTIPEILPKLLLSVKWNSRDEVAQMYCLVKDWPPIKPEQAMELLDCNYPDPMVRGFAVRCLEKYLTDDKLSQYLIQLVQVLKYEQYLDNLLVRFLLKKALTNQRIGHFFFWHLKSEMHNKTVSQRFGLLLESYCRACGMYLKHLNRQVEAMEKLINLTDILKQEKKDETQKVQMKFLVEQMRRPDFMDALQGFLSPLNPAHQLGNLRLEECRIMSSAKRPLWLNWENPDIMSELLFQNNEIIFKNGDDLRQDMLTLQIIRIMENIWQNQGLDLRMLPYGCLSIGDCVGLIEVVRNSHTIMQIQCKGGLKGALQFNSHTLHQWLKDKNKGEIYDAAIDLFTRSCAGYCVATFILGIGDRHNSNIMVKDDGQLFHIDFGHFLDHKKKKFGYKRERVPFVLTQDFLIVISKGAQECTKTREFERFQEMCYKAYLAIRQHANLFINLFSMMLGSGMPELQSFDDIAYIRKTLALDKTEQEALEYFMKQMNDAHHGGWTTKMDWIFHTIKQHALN
SMILES,"IC50 ([1]; Homo sapiens, PC-3, 1 h)",Kd (PI3Kδ),Kd (PI3Kβ),Kd (kinase enzymes [2]),Kd (kinase enzymes [3]),Kd (kinase enzymes [4]),"IC50 ([5]; Homo sapiens, PC-3, 1 h)",melting point,IC50 [1],IC50 [5]
COC(=O)c1cc(C(C)Oc2ccc(F)c(F)c2)c2nc(N3CCOCC3)cnc2c1 (centres unmarked) [Compound 209],> 513 nM,11500 nM,316 nM,> 30200 nM,17000 nM,> 30200 nM,> 513 nM,183 °C,–,–
"CC(Nc1cc(F)cc(F)c1)c1cc(CN2CCn3nccc3C2)cc2ncc(N3CCOCC3)nc12 (single isomer, unassigned) [Compound 210]",–,1020 nM,12 nM,3160 nM,> 30200 nM,> 30200 nM,–,80 °C,151 nM,245 nM
CNCCNC(=O)c1cc([C@@H](C)Oc2cccc(F)c2)c2nc(N3CCOCC3)cnc2c1 [Compound 122a],–,660 nM,3 nM,3700 nM,7970 nM,14100 nM,–,116 °C,9 nM,12 nM
"CC(Nc1cc(F)cc(F)c1)c1cc(C(=O)NC[C@@H](C)O)cc2ncc(N3CCOCC3)nc12 (single isomer, unassigned) [Compound 201]",–,710 nM,2 nM,1460 nM,4450 nM,16500 nM,–,70 °C,26 nM,42 nM
"CC(Nc1ccc(F)c(F)c1)c1cc(C(=O)N[C@H]2CCNC2)cc2ncc(N3CCOCC3)nc12 (single isomer, unassigned) [Compound 374b]",–,5750 nM,98 nM,13500 nM,21900 nM,> 30200 nM,–,130 °C,> 513 nM,> 513 nM
CC(Oc1ccc(F)c(F)c1)c1cc(C(=O)N(C)CCN(C)C)cc2ncc(N3CCOCC3)nc12 (centres unmarked) [Compound 353],18 nM,692 nM,4 nM,5010 nM,> 30200 nM,> 30200 nM,52 nM,80 °C,–,–
CNCCNC(=O)c1cc(NCc2cc(F)cc(F)c2)c2nc(N3CCOCC3)cnc2c1 [Compound 340],50 nM,372 nM,2 nM,1510 nM,5010 nM,12000 nM,76 nM,180 °C,–,–
CC(Nc1cc(F)cc(F)c1)c1cc(CNCCS(C)(=O)=O)cc2ncc(N3CCOCC3)nc12 (centres unmarked) [Compound 173],52 nM,372 nM,1 nM,832 nM,3550 nM,24500 nM,78 nM,80 °C,–,–
"CC(Nc1cc(F)cc(F)c1)c1cc(C(=O)N(C)CCN(C)C)cc2ncc(N3CCOCC3)nc12 (single isomer, unassigned) [Compound 181]",~398 nM,20400 nM,117 nM,5010 nM,17800 nM,> 30200 nM,–,134 °C,–,~447 nM
CNCCNC(=O)c1cc([C@H](C)Oc2cccc(F)c2)c2nc(N3CCOCC3)cnc2c1 [Compound 123a],–,5130 nM,107 nM,10200 nM,11500 nM,17000 nM,–,130 °C,380 nM,> 513 nM
"CC(C)NCCNC(=O)c1cc(C(C)Nc2cc(F)cc(F)c2)c2nc(N3CCOCC3)cnc2c1 (single isomer, unassigned) [Compound 212]",–,3290 nM,12 nM,7090 nM,5070 nM,13800 nM,–,204 °C,328 nM,398 nM
"CC(Nc1cc(F)cc(F)c1)c1cc(CN2CC3(C2)CS(=O)(=O)C3)cc2ncc(N3CCOCC3)nc12 (single isomer, unassigned) [Compound 160]",–,575 nM,2 nM,813 nM,9770 nM,19500 nM,–,229 °C,23 nM,58 nM
"CC(C)NCCNC(=O)c1cc(C(C)Nc2cc(F)cc(F)c2)c2nc(N3CCOCC3)cnc2c1 (single isomer, unassigned) [Compound 211]",–,190 nM,1 nM,3370 nM,3600 nM,20200 nM,–,206 °C,22 nM,36 nM
"CC(C)NCCNC(=O)c1cc(C(C)Nc2cc(F)c(F)c(F)c2)c2nc(N3CCOCC3)cnc2c1 (single isomer, unassigned) [Compound 283a]",52 nM,1550 nM,7 nM,12000 nM,19100 nM,> 30200 nM,81 nM,173 °C,–,–
"CC(Oc1cc(F)cc(F)c1)c1cc(-c2cnc[nH]2)cc2ncc(N3CCOCC3)nc12 (single isomer, unassigned) [Compound 21]",~501 nM,2240 nM,63 nM,4790 nM,15800 nM,20000 nM,513 nM,184 °C,–,–

# Other lines, results leading:
"IC50 ([1]; Homo sapiens, PC-3, 1 h)",Kd (PI3Kδ),Kd (PI3Kβ),Kd (kinase enzymes [2]),Kd (kinase enzymes [3]),Kd (kinase enzymes [4]),"IC50 ([5]; Homo sapiens, PC-3, 1 h)",melting point,IC50 [1],IC50 [5],SMILES
~32 nM,195 nM,3 nM,891 nM,3090 nM,> 30200 nM,117 nM,80 °C,–,–,CC(C)N1CCN(C(=O)c2cc(C3CCCN3c3cc(F)cc(F)c3)c3nc(N4CCOCC4)cnc3c2)CC1 (centres unmarked) [Compound 69]
55 nM,263 nM,3 nM,1350 nM,17800 nM,> 30200 nM,110 nM,80 °C,–,–,CC(Nc1cccc(F)c1)c1cc(C(=O)N2CCOCC2)cc2ncc(N3CCOCC3)nc12 (centres unmarked) [Compound 104]
105 nM,1070 nM,3 nM,1780 nM,8910 nM,9770 nM,112 nM,80 °C,–,–,CC(c1cc(C(=O)N2CCOCC2)cc2ncc(N3CCOCC3)nc12)N(CCO)c1cc(F)cc(F)c1 (centres unmarked) [Compound 129]
~457 nM,724 nM,28 nM,2460 nM,14800 nM,> 30200 nM,> 513 nM,80 °C,–,–,C[C@H](CO)NCc1cc(F)cc(N2CCCC2c2cc(C(=O)N(C)C)cc3ncc(N4CCOCC4)nc23)c1 (mixture of isomers) [Compound 48]
13 nM,138 nM,1 nM,251 nM,794 nM,22400 nM,~15 nM,80 °C,–,–,O=C(NCCO)c1cc(C2CCCN2c2cc(F)cc(F)c2)c2nc(N3CCOCC3)cnc2c1 (centres unmarked) [Compound 71]
–,7240 nM,316 nM,4680 nM,1100 nM,> 30200 nM,–,80 °C,331 nM,> 513 nM,"O=C(c1cc(C2CCCN2c2cc(F)cc(F)c2)c2nc(N3CCOCC3)cnc2c1)N1CCS(=O)(=O)CC1 (single isomer, unassigned) [Compound 43]"
10 nM,29 nM,0.2 nM,363 nM,309 nM,18200 nM,15 nM,80 °C,–,–,CNCC(O)c1cc(C2CCCN2c2cc(F)cc(F)c2)c2nc(N3CCOCC3)cnc2c1 (centres unmarked) [Compound 19]
